Half-life, IC50 and POC data for 15 compounds are collected here from US10689377B2 (Mirati Therapeutics, Inc., priority 2017, dated 2020).

Where two headings read alike, the source gives them in different places.

The nature of data set [1]: In vitro stability in human whole blood. The settings on record: male, whole blood diluted to 50% with PBS, 37° C. The format is in vitro ADME. From the text: Materials: The following reagents were used as received: acetonitrile (HPLC grade, Burdick & Jackson, Madison, Wis.), phosphate buffered saline (PBS), pH 7.4 (Sigma-Aldrich, Co., St. Louis, Mo.), water (HPLC grade, JT Baker, Phillipsburg, N.J.), DMSO (EM Science, Merck KGaA, Darmstadt, Germany) and isopropanol (IPA, reagent grade, EMD Chemicals, Gibbstown, N.J.). Propantheline and esmolol (Sigma-Aldrich) were used as the positive control compounds in the assay. Diazepam (Sigma-Aldrich) was used as an internal standard for quantitation. Human whole blood was obtained from BioIVT (Westbury, N.Y.) […]. All other reagents and solvents were of the highest analytical grade supplied by Sigma (St. Louis, Mo.) and were used as received.
Blood Incubations: The in vitro stability of representative KRas G12C inhibitor compounds of the present invention in the presence whole blood was conducted in the following manner. Esmolol or propantheline, which are known to undergo ester hydrolysis by esterases in blood and plasma, were used as the positive controls in the assays. A 10 mM stock solution of propantheline, esmolol, or a compound of the present invention in DMSO was diluted to 500 μM with DMSO. Aliquots of whole blood (600 μL), in triplicate, were placed in the appropriate wells of a polypropylene 96-deep well plate (Axygen Scientific, Union City, Calif.). The blood was diluted to 50% using PBS, pH 7.4 (600 μL). The diluted blood was pre-incubated for 15 minutes at 37° C. Each well was dosed with 12 μL of the 500 μM DMSO stock simultaneously for a final test concentration of 5 μM. The plates were mixed at 600 rpm for 10 seconds on a plate shaker (IKA MTS 2/4 Digital Microtiter Shaker, VWR). Aliquots of 100 μL from each well of whole blood were transferred to three separate 96-deep well plates labeled 0, 60, or 240 minutes. At the end of each designated time point, the red blood cells were lysed with 100 μL of water, mixed at 600 rpm for one minute, and stopped with 800 μL of acetonitrile containing IS (0.625 μM diazepam). The plates were mixed on the plate shaker at 600 rpm for one minute and spun in a centrifuge at 2095×g for 7 minutes at room temperature using an Allegra benchtop centrifuge (Beckman Coulter, Fullerton, Calif.). Supernatant (100 μL) was transferred to a shallow 96-well plate (Costar) using a liquid sample handling system (Apricot, Perkin-Elmer, Boston, Mass.). The addition of 100 μL of water was added to each sample of supernatant for a final volume of 200 μL. The plates were sealed and the contents of each well were analyzed by LC-MS/MS.
Analytical quantitation: The LC-MS/MS system was comprised of an HTS-PAL autosampler (Leap Technologies, Carrboro, N.C.), an HP1200 HPLC (Agilent, Palo Alto, Calif.), and an API4000 triple quadrupole mass spectrometer (PE Sciex, a division of Applied Biosystems, Foster City, Calif.). […] The total run time, including re-equilibration, for a single injection was 2 minutes. Mass spectrometric detection of the analytes was accomplished using the ESI ionization mode. Ion current was optimized during infusion of a stock solution of propantheline, esmolol, or the representative test compound. Analyte responses, including the IS were measured by multiple reaction monitoring (MRM) of transitions unique to each compound.
Calculations: Data were acquired and peak areas were calculated for test compounds and the internal standard using Analyst 1.6.2 software (Sciex). The mean peak area ratios were calculated by averaging the peak area ratios (n=3) of each test compound and the IS for each sample.
Peak area tables were exported to BioAssay Enterprise (CambridgeSoft, Cambridge, Mass.), where the average analyte-to-internal standard peak area ratios were used to calculate percent remaining (% REM) and half-life (t1/2). Percent remaining (f) was calculated by determining the ratio of the peak area ratio at each time point to the peak area ratio of the time-zero samples. […]

Data set [2] deals with KRas G12C (Homo sapiens, UniProt P01116, G12C). Put plainly: Cellular inhibition of KRas G12C measured by Phospho-ERK in NCI-H358 cells. Conditions: pERK(Thr202/Tyr204) normalized with GAPDH, NCI-H358 cells, 3 hours; read-out: IC50. The format is cell-based. A digest of the protocol: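 NCI-H358 cells treated 3 h with compound (0.5% DMSO final), then fixed and methanol-permeabilised. In-cell immunofluorescence measured pERK(Thr202/Tyr204) normalised to GAPDH as percent of DMSO control. IC50 from a 4-parameter dose-response fit.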

In data set [3] the target is KRas G12C (Homo sapiens, UniProt P01116, C118S/C51S/C80L/G12C). Put plainly: KRas G12C Modification Assay (LCMS detection of covalent adduct). The class given is binding. A digest of the protocol:
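Intact protein analysed by LC/MS with deconvolution; unmodified protein signal normalized to no-compound control and reported as percent of control (POC).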

[4] abbreviates: pH 7.4, human whole blood diluted to 50% with PBS, 5 μM, 240-minute incubation, read-out: Compound Half-life.
Setting [5] is: normalized percent of control, 5 μM concentration for 3 hours.

Broadly, the half-life is how long it takes for the measured level to halve. In general, IC50 refers to the concentration needed to halve the response being measured. For the compound `COC/C=C/C(=O)N1CCN(c2nc(OC[C@@H]3CCCN3C)nc3c2CCN(c2cccc4cccc(C)c24)C3)C[C@@H]1CC#N` [Example 511, 2-((S)-1-((E)-4-methoxybut-2-enoyl)-4-(7-(8-methylnaphthalen-1-yl)-2-(((S)-1-methylpyrrolidin-2-yl)methoxy)-5,6,7,8-tetrahydropyrido[3,4-d]pyrimidin-4-yl)piperazin-2-yl)acetonitrile], the half-life at 5 µM in data set [1] (setting [4]) is above 33.3 h. Further, the 50% inhibitory concentration (IC50) in data set [2] was 0.0001 to 1 µM. For the compound `Cc1cccc2cccc(N3CCc4c(nc(OC[C@H]5CCCN5C)nc4N4CCN(C(=O)/C=C/CF)[C@@H](CC#N)C4)C3)c12` [Example 579, 2-[(2S)-1-[(E)-4-Fluorobut-2-enoyl]-4-[7-(8-methyl-1-naphthyl)-2-[[(2R)-1-methylpyrrolidin-2-yl]methoxy]-6,8-dihydro-5H-pyrido[3,4-d]pyrimidin-4-yl]piperazin-2-yl]acetonitrile], in data set [1] (setting [4]), the half-life at 5 µM lay within 16.7 to 33.3 h. In addition, the IC50 in data set [2] is 0.0001 to 1 µM. As to `C/C=C/C(=O)N1CCN(c2nc(OC[C@@H]3CCCN3C)nc3c2CCN(c2cccc4cccc(C)c24)C3)C[C@@H]1CC#N` [Example 372], in data set [1] (setting [4]), the half-life at 5 µM was above 33.3 h. The IC50 in data set [2] was in the range of 0.0001 to 1 µM. On the same counts, the results for `Cc1cccc2cccc(N3CCc4c(nc(OC[C@@H]5CCCN5C)nc4N4CCN(C(=O)/C=C/CCl)[C@@H](CC#N)C4)C3)c12` [Example 498, 2-((S)-1-((E)-4-chlorobut-2-enoyl)-4-(7-(8-methylnaphthalen-1-yl)-2-(((S)-1-methylpyrrolidin-2-yl)methoxy)-5,6,7,8-tetrahydropyrido[3,4-d]pyrimidin-4-yl)piperazin-2-yl)acetonitrile] are above 33.3 h and 0.0001 to 1 µM. For the compound `CN(C)C/C=C/C(=O)N1CCN(c2nc(OC[C@@H]3CCCN3C)nc3c2CCN(c2cccc4ccccc24)C3)C[C@@H]1CC#N` [Example 235, 2-((S)-1-((E)-4-(dimethylamino)but-2-enoyl)-4-(2-(((S)-1-methylpyrrolidin-2-yl)methoxy)-7-(naphthalen-1-yl)-5,6,7,8-tetrahydropyrido[3,4-d]pyrimidin-4-yl)piperazin-2-yl)acetonitrile], in data set [1] (setting [4]), the half-life at 5 µM was above 33.3 h. The IC50 in data set [2] was in the range of 0.0001 to 1 µM. With `C=C(F)C(=O)N1CCN(c2nc(OC[C@H]3CCCN3C)nc3c2CCN(c2cccc4cccc(Cl)c24)C3)C[C@@H]1CC#N` [Example 557, 2-[(2S)-4-[7-(8-Chloro-1-naphthyl)-2-[[(2R)-1-methylpyrrolidin-2-yl]methoxy]-6,8-dihydro-5H-pyrido[3,4-d]pyrimidin-4-yl]-1-(2-fluoroprop-2-enoyl)piperazin-2-yl]acetonitrile], in data set [1] (setting [4]), the half-life at 5 µM is above 33.3 h. On the same count and under the same terms, as for `COC/C=C/C(=O)N1CCN(c2nc(OC[C@H]3C[C@@H](OC)CN3C)nc3c2CCN(c2cccc4cccc(C)c24)C3)C[C@@H]1CC#N` [Example 552, 2-[(2S)-1-[(E)-4-methoxybut-2-enoyl]-4-[2-[[(2R,4R)-4-methoxy-1-methyl-pyrrolidin-2-yl]methoxy]-7-(8-methyl-1-naphthyl)-6,8-dihydro-5H-pyrido[3,4-d]pyrimidin-4-yl]piperazin-2-yl]acetonitrile], the figure is above 33.3 h. The same measure, in the same setting: as for `C=CC(=O)N1CCN(c2nc(OC[C@@H]3CCCN3C)nc3c2CCN(c2cccc4cccc(Cl)c24)C3)C[C@@H]1CC#N` [Example 331, 2-[(2S)-4-[7-(8-chloro-1-naphthyl)-2-[[(2S)-1-methylpyrrolidin-2-yl]methoxy]-6,8-dihydro-5H-pyrido[3,4-d]pyrimidin-4-yl]-1-prop-2-enoyl-piperazin-2-yl]acetonitrile], the figure is 3.33 to 16.7 h.

On to `CC(C)[N+](C)(CCOC(=O)C1c2ccccc2Oc2ccccc21)C(C)C` [Propantheline, reference compound], for which the half-life at 5 µM in data set [1] (setting [4]) was at most 3.33 h; in data set [1] (pH 7.4, human whole blood, positive control, read-out: half life), 1.63 h. For the compound `Cc1cccc2cccc(N3CCc4c(nc(OC[C@@H]5CCCN5C)nc4N4CCN(C(=O)/C=C/CN5CC(F)C5)[C@@H](CC#N)C4)C3)c12` [Example 515, 2-[(2S)-1-[(E)-4-(3-fluoroazetidin-1-yl)but-2-enoyl]-4-[7-(8-methyl-1-naphthyl)-2-[[(2S)-1-methylpyrrolidin-2-yl]methoxy]-6,8-dihydro-5H-pyrido[3,4-d]pyrimidin-4-yl]piperazin-2-yl]acetonitrile], the half-life at 5 µM in data set [1] (setting [4]) was above 33.3 h. In the case of `C=CC(=O)N1CCN(c2nc(OC[C@@H]3CCCN3C)nc3c2CCN(c2cccc4ccc(C)cc24)C3)CC1CC#N` (stereo partly drawn) [Example 245, 2-[4-[7-(7-methyl-1-naphthyl)-2-[[(2S)-1-methylpyrrolidin-2-yl]methoxy]-6,8-dihydro-5H-pyrido[3,4-d]pyrimidin-4-yl]-1-prop-2-enoyl-piperazin-2-yl]acetonitrile], in data set [3] (setting [5]), the POC entry is listed as “C (“C”>50% POC)”. Further, the IC50 in data set [2] lay in the range of 0.0001 to 1 µM. Consider `C=C(F)C(=O)N1CCN(c2nc(OC[C@@H]3CCCN3C)nc3c2CCN(c2c(C(F)(F)F)c(C)cc4[nH]ncc24)C3)C[C@@H]1CC#N` [Example 555, 2-((S)-1-(2-Fluoroacryloyl)-4-(7-(6-methyl-5-(trifluoromethyl)-1H-indazol-4-yl)-2-(((S)-1-methylpyrrolidin-2-yl)methoxy)-5,6,7,8-tetrahydropyrido [3,4-d]pyrimidin-4-yl)piperazin-2-yl)acetonitrile], for which the POC result in data set [3] (setting [5]) was “C (“C”>50% POC)”. In addition, the IC50 in data set [2] fell in the range of 0.0001 to 1 µM.

Take `C=CC(=O)N1CCN(c2nc(OC[C@@H]3CCCN3C)nc3c2CCN(c2c(C)ccc4[nH]ncc24)C3)CC1` [Example 155, (S)-1-(4-(7-(5-methyl-1H-indazol-4-yl)-2-((1-methylpyrrolidin-2-yl)methoxy)-5,6,7,8-tetrahydropyrido[3,4-d]pyrimidin-4-yl)piperazin-1-yl)prop-2-en-1-one]: the POC entry in data set [3] (5 µM) is “C (key: “A”≤25% POC; “B”>25% POC-≤50% POC; “C”>50% POC)”. Also, the IC50 in data set [2] lay in the range of 0.0001 to 1 µM. As for `C=C(F)C(=O)N1CCN(c2nc(OC[C@@H]3CC(F)(F)CN3C)nc3c2CCN(c2cccc4cccc(C)c24)C3)C[C@@H]1CC#N` [Example 530, 2-((S)-4-(2-(((S)-4,4-difluoro-1-methylpyrrolidin-2-yl)methoxy)-7-(8-methylnaphthalen-1-yl)-5,6,7,8-tetrahydropyrido[3,4-d]pyrimidin-4-yl)-1-(2-fluoroacryloyl)piperazin-2-yl)acetonitrile], the POC result in data set [3] (setting [5]) is listed as “C (“C”>50% POC)”. Moreover, the IC50 in data set [2] fell in the range of 0.0001 to 1 µM.

Regarding `C=C(F)C(=O)N1CCN(c2nc(OC[C@@H]3CCCN3C)nc3c2CCN(c2cccc4cccc(Cl)c24)C3)C[C@@H]1CC#N` [Example 478, 2-[(2S)-4-[7-(8-chloro-1-naphthyl)-2-[[(2S)-1-methylpyrrolidin-2-yl]methoxy]-6,8-dihydro-5H-pyrido[3,4-d]pyrimidin-4-yl]-1-(2-fluoroprop-2-enoyl)piperazin-2-yl]acetonitrile], the half-life at 5 µM in data set [1] (setting [4]) is above 33.3 h.
